From patent US12358879B2, “Heterocyclic compound” (Takeda Pharmaceutical Company Limited, priority 2019, dated 2025)

System: Skin fibroblasts derived from FA patients (GM4078)
Assay: RSL3-induced cell death inhibitory activity in skin fibroblasts derived from FA patients (ATP, CellTiter-Glo)
Type: cell-based, human
Conditions: 3 μmol/l RSL3, 24 hours
Protocol: The effects of the compounds according to the present disclosure were evaluated according to the literature (M. G. Cotticelli et al, J Pharmacol Exp Ther 2019, 369, 47-54.).
Skin fibroblasts derived from FA patients (Coriell Institute for Medical Research, GM4078) were cultured in a culture medium consisting of DMEM (Thermo Fisher Scientific, 11995-065), 10% fetal bovine serum (Thermo Fisher Scientific, 26140-087), 1% GlutaMAX supplement (Thermo Fisher Scientific, 35050-061) and 1% Penicillin-Streptomycin solution (FUJIFILM Wako Pure Chemical Corporation, 168-23191).
For assay, the fibroblasts in the above culture medium were seeded in a 384-well plate at 1,500 cells per well, and the test compound and 3 μmol/l (final concentration) RSL3 were added to the plate the day after seeding. The concentration of the test compound added to the assay plate was 0.01, 0.1, 1 and 10 μmol/l as 4 points, and DMSO was added as a negative control for the test compound and RSL3. Twenty-four hours after the addition of RSL3/the test compound, CellTiter-Glo Luminescent Cell Viability Assay solution (Promega, G7573) was added to the plate to lyse the cells, and ATP was measured as an index of cell viability by detecting chemiluminescence with a plate reader.
RSL3-induced cell death inhibitory activity of the test compound=((X−C)/(T−C))×100 • X: ATP in the RSL3 addition/the test compound addition group, • C: ATP in the RSL3 addition/the test compound non-addition group, • T: ATP in the RSL3 non-addition/the test compound non-addition group

| Structure (SMILES) | RSL3-induced cell death inhibitory activity (%) at each compound concentration (μmol/l) (compound 0.01 μmol/l) | RSL3-induced cell death inhibitory activity (%) at each compound concentration (μmol/l) (compound 0.1 μmol/l) | RSL3-induced cell death inhibitory activity (%) at each compound concentration (μmol/l) (compound 1 μmol/l) | RSL3-induced cell death inhibitory activity (%) at each compound concentration (μmol/l) (compound 10 μmol/l) |
| --- | --- | --- | --- | --- |
| COc1nn(C)cc1Nc1nn(C2CCC2)c2ccc(C(C)(C)O)cc12 [Example 70, 2-{1-cyclobutyl-3-[(3-methoxy-1-methyl-1H-pyrazol-4-yl)amino]-1H-indazol-5-yl}propan-2-ol] | 12.1% | 86.1% | 89.2% | 82.2% |
| COc1nn(C)cc1Nc1nn(C)c2ccc(C(C)(C)O)cc12 [Example 41, 2-{3-[(3-methoxy-1-methyl-1H-pyrazol-4-yl)amino]-1-methyl-1H-indazol-5-yl}propan-2-ol] | 21.3% | 40.8% | 58.1% | 71.7% |
| COc1nn(C)cc1Nc1nn(C(C)C)c2cc(C(C)(C)O)ccc12 [Example 39, 2-{3-[(3-methoxy-1-methyl-1H-pyrazol-4-yl)amino]-1-(propan-2-yl)-1H-indazol-6-yl}propan-2-ol] | 58.0% | 66.4% | 83.0% | 93.2% |
| Cn1nc(Nc2cnn3c2OCCC3)c2cc(F)c(C(C)(C)O)cc21 [Example 56, 2-{3-[(6,7-dihydro-5H-pyrazolo[5,1-b][1,3]oxazin-3-yl)amino]-5-fluoro-1-methyl-1H-indazol-6-yl}propan-2-ol] | 47.4% | 69.3% | 94.2% | 90.3% |
| COc1c(Nc2nn(C)c3cc(C(C)(C)O)cc(F)c23)cnn1CC(C)C [Example 44, 2-(4-fluoro-3-{[5-methoxy-1-(2-methylpropyl)-1H-pyrazol-4-yl]amino}-1-methyl-1H-indazol-6-yl)propan-2-ol] | 38.3% | 61.3% | 78.4% | 95.0% |
| COc1cc(-c2cnn(C)c2)ccc1Nc1n[nH]c2cc(C(C)(C)O)ccc12 [Example 12, 2-{3-[2-methoxy-4-(1-methyl-1H-pyrazol-4-yl)anilino]-1H-indazol-6-yl}propan-2-ol] | 33.2% | 57.8% | 79.9% | 85.9% |
| COc1nn(C)cc1Nc1nn(CC2CC2(F)F)c2cc(C(C)(C)O)ccc12 (stereo not drawn) [Example 77, 2-{1-[(2,2-difluorocyclopropyl)methyl]-3-[(3-methoxy-1-methyl-1H-pyrazol-4-yl)amino]-1H-indazol-6-yl}propan-2-ol] | 17.7% | 46.4% | 76.2% | 77.1% |
| CCn1nc(Nc2cn(C)nc2OC)c2ccc(C(C)(C)O)cc21 [Example 36, 2-{1-ethyl-3-[(3-methoxy-1-methyl-1H-pyrazol-4-yl)amino]-1H-indazol-6-yl}propan-2-ol] | 14.0% | 28.5% | 55.8% | 86.0% |
| COc1c(Nc2nn(C)c3cc(C(C)(C)O)ccc23)cnn1CC(C)C [Example 40, 2-(3-{[5-methoxy-1-(2-methylpropyl)-1H-pyrazol-4-yl]amino}-1-methyl-1H-indazol-6-yl)propan-2-ol] | 40.7% | 63.0% | 98.1% | 94.9% |
| COCc1nn(C)cc1Nc1nn(C2CCC2)c2ccc(C(C)(C)O)cc12 [Example 88, 2-(1-cyclobutyl-3-{[3-(methoxymethyl)-1-methyl-1H-pyrazol-4-yl]amino}-1H-indazol-5-yl)propan-2-ol] | 13.6% | 61.2% | 73.0% | 72.7% |
| COc1nn(C)cc1Nc1nn(CC2CC2)c2cc(C(C)(C)O)ccc12 [Example 49, 2-{1-(cyclopropylmethyl)-3-[(3-methoxy-1-methyl-1H-pyrazol-4-yl)amino]-1H-indazol-6-yl}propan-2-ol] | 37.8% | 64.9% | 96.5% | 93.0% |
| COCc1nn(C)cc1Nc1nn(C(C)C)c2cc(C(C)(C)O)ccc12 [Example 85, 2-[3-{[3-(methoxymethyl)-1-methyl-1H-pyrazol-4-yl]amino}-1-(propan-2-yl)-1H-indazol-6-yl]propan-2-ol] | 11.4% | 43.2% | 68.4% | 72.6% |
| Cn1cc(Nc2nn(C)c3cc(C(C)(C)O)ccc23)c(C(F)(F)F)n1 [Example 5, 2-(1-methyl-3-{[1-methyl-3-(trifluoromethyl)-1H-pyrazol-4-yl]amino}-1H-indazol-6-yl)propan-2-ol] | 27.8% | 53.9% | 84.5% | 82.7% |
| COCc1nn(C)cc1Nc1nn(CC2CC2)c2cc(C(C)(C)O)ccc12 [Example 84, 2-[1-(cyclopropylmethyl)-3-{[3-(methoxymethyl)-1-methyl-1H-pyrazol-4-yl]amino}-1H-indazol-6-yl]propan-2-ol] | 12.4% | 47.5% | 75.7% | 73.8% |
| Cn1nc(NC2CCCCC2)c2cc(C(C)(C)O)ccc21 [Example 59, 2-[3-(cyclohexylamino)-1-methyl-1H-indazol-5-yl]propan-2-ol] | 48.0% | 65.9% | 93.3% | 95.9% |
| Cn1ncc(Nc2nn(C)c3cc(C(C)(C)O)ccc23)c1C(F)(F)F [Example 9, 2-(1-methyl-3-{[1-methyl-5-(trifluoromethyl)-1H-pyrazol-4-yl]amino}-1H-indazol-6-yl)propan-2-ol] | 30.0% | 61.8% | 96.1% | 84.6% |
| COc1nn(C)cc1Nc1nn(C2CCC2)c2cc(C(C)(C)O)ccc12 [Example 68, 2-{1-cyclobutyl-3-[(3-methoxy-1-methyl-1H-pyrazol-4-yl)amino]-1H-indazol-6-yl}propan-2-ol] | 49.5% | 66.1% | 95.5% | 93.7% |
| Cn1nc(Nc2cnn3c2CCCC3)c2ccc(C(C)(C)O)cc21 [Example 19, 2-{1-methyl-3-[(4,5,6,7-tetrahydropyrazolo[1,5-a]pyridin-3-yl)amino]-1H-indazol-6-yl}propan-2-ol] | 11.1% | 32.1% | 58.9% | 78.9% |
